Assays:
Molt 4 = test system: Molt 4
Excerpt: The cell lines were obtained from the American Type Culture Collection (ATCC, Manassas, Va., U.S.A.) or the Japanese Collection of Research Biosources (JCRB) Cell Bank (Japan). […] Antibodies against XIAP, NFκB (p65), GADD, CDK 4, HSF 1, ATF 6 and β-tubulin were obtained from Santa Cruz Biotechnology (Santa Cruz, Calif., U.S.A.). The Hybond ECL transfer membrane and ECL Western blotting detection kits were obtained from Amersham Life Sciences (Amersham, U.K.).
Several cancer cell lines including leukemia K562, Molt 4, and HL 60 cells, prostate cancer LNCaP cells, colon cancer DLD-1 cells and breast cancer T-47D cells were used to evaluate the antiproliferative activity (referring to Table 2).
It is known that mitochondria are critical intracellular loci of ROS production and ROS exposure can lead to the […] opening. The antioxidant, microsomal GST1, in the inner mitochondrial membrane can interact with the mitochondrial permeability transition (MPT) regulator proteins, such as ANT and/or CypD, to form a MPT pore contributing to mitochondria-mediated cell death. In addition, mitochondrial homeostasis of tumor cells is regulated by an organelle-specific Hsp90 chaperone network.

human topoisomerase II = biological target: T1, human topoisomerase II (Homo sapiens, UniProt P11388); test: Assay of topoisomerase II catalytic inhibitors and poisons (cell-free pHOT1 DNA relaxation/cleavage); assay type: biochemical
T1 construct: purchased Topogen
Experimental: Assay of Topoisomerase II Catalytic Inhibitors and Poisons:
Reactions were terminated by adding 2 μL of 10% SDS to facilitate trapping the enzyme in a cleavage complex, followed by the addition of 2.5 μL of proteinase K (50 μg/mL) to digest the bound protein (incubated at 37° C. for 15 minutes) and finally by adding 0.1 volume of the sample loading dye. The DNA products were analyzed via electrophoresis through vertical 2% agarose gels at 2 voltage/cm in 0.5×TAE buffer. Gels were stained with ethidium bromide (EtBr) and photographed using an Eagle Eye II system (Stratagene, La Jolla, Calif., U.S.A.). The quantitative analysis of the DNA Topo II activity was performed.

γH2AX = test: Western blot of γH2AX expression in Molt 4 cells; assay type: cell-based, human; conditions: Molt 4 cells, 0.0625, 0.125 and 0.25 μg/mL, 24 hours
Experimental: Protein expression was analyzed with Western blotting. GAPDH was used as the loading control.
In order to confirm whether the DNA damage-induced by the marine terpenoids of the present invention involved the inhibition of Topo II activity, a cell-free DNA cleavage assay using an enzyme-mediated negatively supercoiled pHOT1 plasmid DNA was applied. […] These marine terpenoids suppressed Topo II activity, resulting in the inhibition of supercoiled DNA relaxation in a dose-dependent manner (FIG. 2(A)). […] To determine whether the apoptotic mechanism of compounds 1 to 3 affects γH2AX (as a biomarker of DNA damage) induction, Western blot analysis was employed to examine the activation of γH2AX.

Molt 4 cells [1] = test: Annexin V/PI apoptosis assay; assay type: cell-based, human; conditions: Molt 4 cells, 0.0625, 0.125 and 0.25 μg/mL, 24 hours, dose-dependent
Experimental: Annexin V/Propidium Iodide (PI) Apoptosis Assay:
The externalization of phosphatidylserine (PS) and membrane integrity were quantified using an annexin V-fluorescein isothiocyanate (annexin V-FITC) staining kit. In brief, 10^6 cells were grown in 35 mm diameter plates and were labeled with annexin V-FITC (10 μg/mL) and PI (20 μg/mL) prior to harvesting. After labeling, all plates were washed with a binding buffer and harvested. Cells were resuspended in the binding buffer at a concentration of 2×10^5 cells/mL before analysis by flow cytometer FACS-Calibur (Becton-Dickinson, San Jose, Calif., U.S.A.) and CellQuest software. Approximately 10,000 cells were counted for each determination.

Molt 4 cells [2] = test: JC-1 staining, mitochondrial membrane potential disruption; assay type: cell-based, human; conditions: Molt 4 cells, 0.0625, 0.125 and 0.25 μg/mL, 24 hours, dose-dependent
Experimental: Determination of Reactive Oxygen Species (ROS) Generation, Calcium Accumulation, and Matrix Metalloproteinase (MMP) Disruption:
MMP disruption, calcium accumulation and ROS generation were detected with the JC-1 cationic dye (5 μg/mL), the fluorescent calcium indicator (Fluo 3, […]) and the carboxy derivative of fluorescein (carboxy-H2DCFDA, […]), respectively. In brief, the treated cells were labeled with a specific fluorescent dye for 30 minutes. After labeling, cells were washed with PBS and resuspended in PBS at a concentration of 1×10^6 cells/mL before analysis via flow cytometry.

[3] = test system: human Molt 4 tumor xenograft; test: Human leukemia Molt 4 cells xenograft animal model; assay type: in vivo, mice; conditions: 1.14 μg/g intraperitoneal, 33 days
Experimental: FIG. 3(A) is a diagram showing the effect of compound 3 on the tumor growth in an in vivo human Molt 4 tumor xenograft animal model. Tumor-bearing nude mice were intraperitoneally injected with solvent control (DMSO) and compound 3 (1.14 μg/g) for 33 days. […] Control, n=8; compound 3, n=7.
FIG. 3(B) is a diagram showing the effect of compound 3 on the body weight in the in vivo human Molt 4 tumor xenograft animal model. Tumor-bearing nude mice were intraperitoneally injected with solvent control (DMSO) and compound 3 (1.14 μg/g) for 33 days. The body weight were measured every other day, and the results are expressed as mean±SD. Control, n=8; compound 3, n=7.
Human Leukemia Molt 4 Cells Xenograft Animal Model:
Six-week-old male immunodeficient athymic mice were purchased from the National Laboratory Animal and Research Center (Taipei, Taiwan). All of the animals were maintained under standard laboratory conditions (temperature 24-26° C., 12-12 hour dark-light circle) and fed with a laboratory diet and water. Molt 4 cells (1×10^6) resuspended in 0.2 mL PBS were injected subcutaneously (s.c.) into the right flank of each mouse, and tumor growth was monitored every day. […] Tumor size was measured three times a week using calipers and tumor volumes were calculated according to the standard formula: width^2×length/2.

T1 sequence (P11388 whole entry): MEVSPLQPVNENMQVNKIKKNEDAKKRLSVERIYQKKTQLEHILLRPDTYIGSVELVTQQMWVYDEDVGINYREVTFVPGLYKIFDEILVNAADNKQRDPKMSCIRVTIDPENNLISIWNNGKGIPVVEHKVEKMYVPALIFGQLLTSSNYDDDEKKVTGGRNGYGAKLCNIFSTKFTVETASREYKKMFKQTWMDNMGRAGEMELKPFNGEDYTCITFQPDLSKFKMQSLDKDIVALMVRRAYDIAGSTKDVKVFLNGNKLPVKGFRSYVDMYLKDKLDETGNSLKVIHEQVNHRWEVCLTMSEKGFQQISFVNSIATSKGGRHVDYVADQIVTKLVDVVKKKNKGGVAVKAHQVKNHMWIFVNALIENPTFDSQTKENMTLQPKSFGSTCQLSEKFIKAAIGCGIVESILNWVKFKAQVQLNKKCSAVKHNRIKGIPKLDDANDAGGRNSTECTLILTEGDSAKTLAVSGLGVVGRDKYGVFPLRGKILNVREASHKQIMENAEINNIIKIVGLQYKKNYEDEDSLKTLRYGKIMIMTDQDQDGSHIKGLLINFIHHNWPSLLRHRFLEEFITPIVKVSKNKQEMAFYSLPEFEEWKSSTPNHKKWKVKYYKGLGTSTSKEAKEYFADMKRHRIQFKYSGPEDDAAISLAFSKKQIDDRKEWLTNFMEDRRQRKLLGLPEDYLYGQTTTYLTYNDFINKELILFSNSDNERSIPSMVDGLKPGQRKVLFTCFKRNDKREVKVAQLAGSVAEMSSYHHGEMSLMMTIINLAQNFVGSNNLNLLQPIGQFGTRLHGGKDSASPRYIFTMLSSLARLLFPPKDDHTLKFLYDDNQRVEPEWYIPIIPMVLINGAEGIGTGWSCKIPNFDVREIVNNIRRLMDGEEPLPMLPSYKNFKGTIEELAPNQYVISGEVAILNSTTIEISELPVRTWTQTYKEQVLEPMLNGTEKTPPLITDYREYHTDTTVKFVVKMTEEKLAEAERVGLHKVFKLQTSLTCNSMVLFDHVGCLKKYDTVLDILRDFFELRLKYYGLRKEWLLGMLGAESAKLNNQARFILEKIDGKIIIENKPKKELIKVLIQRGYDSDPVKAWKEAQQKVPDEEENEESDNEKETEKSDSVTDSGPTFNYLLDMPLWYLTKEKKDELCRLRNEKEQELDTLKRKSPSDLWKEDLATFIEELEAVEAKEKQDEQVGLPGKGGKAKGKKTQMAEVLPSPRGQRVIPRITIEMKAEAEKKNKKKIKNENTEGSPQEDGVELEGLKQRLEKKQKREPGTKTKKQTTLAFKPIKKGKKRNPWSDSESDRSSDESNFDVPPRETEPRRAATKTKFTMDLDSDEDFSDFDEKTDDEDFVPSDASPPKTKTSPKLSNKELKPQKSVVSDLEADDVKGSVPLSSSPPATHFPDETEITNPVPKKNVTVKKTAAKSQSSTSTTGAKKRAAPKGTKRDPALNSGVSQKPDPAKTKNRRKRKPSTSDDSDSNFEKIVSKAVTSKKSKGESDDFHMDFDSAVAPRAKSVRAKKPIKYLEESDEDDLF

CC[C@@H](O)CC(=O)O[C@@H]1C[C@@H]2[C@@]3(C)CCC[C@](C)(CC)[C@@H]3CC[C@@]2(C)[C@@H]2CC=C(C(C)=O)[C@H](C=O)[C@@]12C (relative stereo) [Compound 2, 12β-(3′β-hydroxypentanoyloxy)-20,24-dimethyl-24-oxo-scalara-16-en-25-al]
Cytotoxic effect IC50, Molt 4 (Molt 4): 0.30 µg/mL
IC50 (human topoisomerase II; cell-free system, read-out: Topo II activity IC50 (converted)): 719 nM
Expression of γH2AX (DNA damage biomarker) (γH2AX): significantly enhanced the expression of γH2AX in a dose-dependent manner
Apoptotic population (annexin-V/PI) (Molt 4 cells [1]): increase in the apoptotic population
Mitochondrial membrane potential (JC-1) (Molt 4 cells [2]): disruption in mitochondrial membrane potential

CC(C)=CCC/C(C)=C/CC/C(C)=C/CC/C(C)=C/CC1=CC(=O)C=CC1=O [Compound 3, 2-tetraprenil-1,4-benzochinone]
Cytotoxic effect IC50, Molt 4 (Molt 4): 0.34 µg/mL
inhibition at 0.08 µg/mL (human topoisomerase II; 0.08 μg/mL): 7%
inhibition at 0.312 µg/mL (human topoisomerase II; 0.312 μg/mL): 13%
inhibition at 1.25 µg/mL (human topoisomerase II; 1.25 μg/mL): 28%
inhibition at 5 µg/mL (human topoisomerase II; 5 μg/mL): 90%
inhibition at 20 µg/mL (human topoisomerase II; 20 μg/mL): 98%
Topo II activity IC50 (human topoisomerase II; cell-free system): 0.43 µg/mL
Expression of γH2AX (DNA damage biomarker) (γH2AX): activation of DNA damage was not observed
Apoptotic population (annexin-V/PI) (Molt 4 cells [1]): increase in the apoptotic population
Mitochondrial membrane potential (JC-1) (Molt 4 cells [2]): disruption in mitochondrial membrane potential
Mice body weights versus control [3]: no significant difference

Source: US10314847B2, “Scalarane sesterterpenoid, pharmaceutical composition and topoisomerase II and Hsp90 inhibitor for treating cancer, and use and preparation method thereof” (NATIONAL DONG HWA UNIVERSITY, priority 2017, dated 2019)
